Assay results: paper PMC5218480 (PLoS ONE, 2017)

System: MV-4-11 cells
Experiment: Gene expression microarray analysis (Affymetrix PrimeView) and GSEA
Format: cell-based, human
Set-up: RFU PODN (11730768_x_at) / Fold change /veh PODN (11730768_x_at) / RFU LINC00158 (11744669_a_at) / Fold change /veh LINC00158 (11744669_a_at) / RFU DUSP10 (11751237_a_at) / Fold change /veh DUSP10 (11751237_a_at) / RFU ID3 (11757404_x_at) / Fold change /veh ID3 (11757404_x_at) / RFU PLEKHG5 (11737974_s_at) / Fold change /veh PLEKHG5 (11737974_s_at) / RFU LRRC4B (11730491_at) / Fold change /veh LRRC4B (11730491_at) / RFU GIMAP4 (11747438_a_at) / Fold change /veh GIMAP4 (11747438_a_at) / RFU KRT8 (11758183_x_at) / Fold change /veh KRT8 (11758183_x_at) / RFU CNN1 (11734310_a_at) / Fold change /veh CNN1 (11734310_a_at) / RFU VPS37D (11726825_at) / Fold change /veh VPS37D (11726825_at) / RFU C10orf10 (11716522_x_at) / Fold change /veh C10orf10 (11716522_x_at) / RFU KIR2DL2 /// KIR2DL4 /// KIR2DL5A /// KIR2DL5B /// KIR2DS1 /// KIR2DS2 /// KIR2DS3 /// KIR2DS4 /// KIR3DL3 /// KIR3DL3 /// KIR3DS1 (11738374_at) / Fold change /veh KIR2DL2 /// KIR2DL4 /// KIR2DL5A /// KIR2DL5B /// KIR2DS1 /// KIR2DS2 /// KIR2DS3 /// KIR2DS4 /// KIR3DL3 /// KIR3DL3 /// KIR3DS1 (11738374_at) / RFU C1QL1 (11718748_at) / Fold change /veh C1QL1 (11718748_at) / RFU TMPRSS4 (11747572_a_at) / Fold change /veh TMPRSS4 (11747572_a_at) / RFU HAMP (11756126_x_at) / Fold change /veh HAMP (11756126_x_at) / RFU RNFT2 (11725882_a_at) / Fold change /veh RNFT2 (11725882_a_at) / RFU NR4A2 (11747474_a_at) / Fold change /veh NR4A2 (11747474_a_at) / RFU ABCC12 (11746883_a_at) / Fold change /veh ABCC12 (11746883_a_at) / RFU TMEM136 (11760407_x_at) / Fold change /veh TMEM136 (11760407_x_at) / RFU CLDN22 /// WWC2 (11732394_at) / Fold change /veh CLDN22 /// WWC2 (11732394_at) / RFU HLA-DPB1 (11760878_x_at) / Fold change /veh HLA-DPB1 (11760878_x_at) / RFU SPINT1 (11716480_a_at) / Fold change /veh SPINT1 (11716480_a_at) / RFU GAP43 (11754022_s_at) / Fold change /veh GAP43 (11754022_s_at) / RFU A4GNT (11735810_at) / Fold change /veh A4GNT (11735810_at) / RFU PRB3 (11715151_x_at) / Fold change /veh PRB3 (11715151_x_at) / RFU TUBB4B (11761932_at) / Fold change /veh TUBB4B (11761932_at) / RFU CAPN14 (11732068_a_at) / Fold change /veh CAPN14 (11732068_a_at) / RFU TMCC2 (11721928_a_at) / Fold change /veh TMCC2 (11721928_a_at) / RFU IRGQ (11745062_a_at) / Fold change /veh IRGQ (11745062_a_at) / RFU FAM174B (11720279_a_at) / Fold change /veh FAM174B (11720279_a_at) / RFU TMPRSS4 (11748680_a_at) / Fold change /veh TMPRSS4 (11748680_a_at) / RFU FAM212B (11763350_a_at) / Fold change /veh FAM212B (11763350_a_at) / RFU PLEKHG5 (11743358_a_at) / Fold change /veh PLEKHG5 (11743358_a_at) / RFU ZSCAN30 (11745921_a_at) / Fold change /veh ZSCAN30 (11745921_a_at) / RFU CMKLR1 (11741424_a_at) / Fold change /veh CMKLR1 (11741424_a_at) / RFU LOC101060620 /// MAPK8IP1 (11723275_at) / Fold change /veh LOC101060620 /// MAPK8IP1 (11723275_at) / RFU SPTSSB (11747773_x_at) / Fold change /veh SPTSSB (11747773_x_at) / RFU PRSS12 (11739890_at) / Fold change /veh PRSS12 (11739890_at) / RFU BIN1 (11741810_x_at) / Fold change /veh BIN1 (11741810_x_at) / RFU WNT11 (11732464_a_at) / Fold change /veh WNT11 (11732464_a_at) / RFU C10orf10 (11716521_a_at) / Fold change /veh C10orf10 (11716521_a_at) / RFU C5orf56 (11738089_at) / Fold change /veh C5orf56 (11738089_at) / RFU CYB561 (11721691_x_at) / Fold change /veh CYB561 (11721691_x_at) / RFU ANKRD19P (11752326_a_at) / Fold change /veh ANKRD19P (11752326_a_at) / RFU OR2T12 /// OR2T33 /// OR2T8 (11738714_s_at) / Fold change /veh OR2T12 /// OR2T33 /// OR2T8 (11738714_s_at) / RFU VCAN (11748164_a_at) / Fold change /veh VCAN (11748164_a_at) / RFU JSRP1 (11732532_at) / Fold change /veh JSRP1 (11732532_at) / RFU KRTAP10-11 (11738290_x_at) / Fold change /veh KRTAP10-11 (11738290_x_at) / RFU MYO3A (11730013_a_at) / Fold change /veh MYO3A (11730013_a_at) / RFU EBF3 (11725865_a_at) / Fold change /veh EBF3 (11725865_a_at) / RFU CAMK2N1 (11719241_x_at) / Fold change /veh CAMK2N1 (11719241_x_at) / RFU C5orf56 (11738088_a_at) / Fold change /veh C5orf56 (11738088_a_at) / RFU OLFML3 (11715873_a_at) / Fold change /veh OLFML3 (11715873_a_at) / RFU LOC100653217 /// NTM (11731650_a_at) / Fold change /veh LOC100653217 /// NTM (11731650_a_at) / RFU MAPK11 (11762145_a_at) / Fold change /veh MAPK11 (11762145_a_at) / RFU FIZ1 (11724087_x_at) / Fold change /veh FIZ1 (11724087_x_at) / RFU OASL (11726364_x_at) / Fold change /veh OASL (11726364_x_at) / RFU SOX15 (11748057_x_at) / Fold change /veh SOX15 (11748057_x_at) / RFU CD79A (11719716_a_at) / Fold change /veh CD79A (11719716_a_at) / RFU HIST1H1D (11736915_at) / Fold change /veh HIST1H1D (11736915_at) / RFU CASKIN2 (11723855_a_at) / Fold change /veh CASKIN2 (11723855_a_at) / RFU LOC730098 (11760151_x_at) / Fold change /veh LOC730098 (11760151_x_at) / RFU OR4N2 (11742367_at) / Fold change /veh OR4N2 (11742367_at) / RFU PRRT2 (11749266_a_at) / Fold change /veh PRRT2 (11749266_a_at) / RFU SNX32 (11753110_a_at) / Fold change /veh SNX32 (11753110_a_at) / RFU CDHR5 (11726645_a_at) / Fold change /veh CDHR5 (11726645_a_at) / RFU RCAN1 (11760418_a_at) / Fold change /veh RCAN1 (11760418_a_at) / RFU FAM167A (11723789_a_at) / Fold change /veh FAM167A (11723789_a_at) / RFU FAM26E (11764081_at) / Fold change /veh FAM26E (11764081_at) / RFU ISYNA1 (11749810_s_at) / Fold change /veh ISYNA1 (11749810_s_at) / RFU ACY1 (11761880_at) / Fold change /veh ACY1 (11761880_at) / RFU 11764098_at / Fold change /veh 11764098_at / RFU SAMD14 (11745864_x_at) / Fold change /veh SAMD14 (11745864_x_at) / RFU NPB (11741838_a_at) / Fold change /veh NPB (11741838_a_at) / RFU TMPRSS6 (11731388_a_at) / Fold change /veh TMPRSS6 (11731388_a_at) / RFU KRTAP10-2 (11738614_at) / Fold change /veh KRTAP10-2 (11738614_at) / RFU ARHGAP8 /// PRR5-ARHGAP8 (11727945_x_at) / Fold change /veh ARHGAP8 /// PRR5-ARHGAP8 (11727945_x_at) / RFU KRTAP5-7 /// NADSYN1 (11734609_at) / Fold change /veh KRTAP5-7 /// NADSYN1 (11734609_at) / RFU RASL12 (11751679_a_at) / Fold change /veh RASL12 (11751679_a_at) / RFU CDKN2B (11736163_a_at) / Fold change /veh CDKN2B (11736163_a_at) / RFU PRF1 (11729649_at) / Fold change /veh PRF1 (11729649_at) / RFU, ZNF638 /// ZNF638-IT1 / Fold change vs veh, ZNF638 /// ZNF638-IT1 / RFU, PANK3 / Fold change vs veh, PANK3 / RFU, SH3YL1 / Fold change vs veh, SH3YL1 / RFU, ZEB2 / Fold change vs veh, ZEB2 / RFU, NRIP1 / Fold change vs veh, NRIP1 / RFU, PTTG1IP / Fold change vs veh, PTTG1IP / RFU, CAPN2 / Fold change vs veh, CAPN2 / RFU, MED14 / Fold change vs veh, MED14 / RFU, SNORA58 / Fold change vs veh, SNORA58 / RFU, C1orf63 / Fold change vs veh, C1orf63 / RFU, LRRFIP1 / Fold change vs veh, LRRFIP1 / RFU, NDUFAF7 / Fold change vs veh, NDUFAF7 / RFU, SLC12A2 / Fold change vs veh, SLC12A2 / RFU, IBTK / Fold change vs veh, IBTK / RFU, ESF1 / Fold change vs veh, ESF1 / Fold change vs veh, TMEM50B / RFU, TAOK1 / Fold change vs veh, TAOK1 / RFU, ACBD3 / Fold change vs veh, ACBD3 / RFU, TMA16 / Fold change vs veh, TMA16 / RFU, RWDD3 / Fold change vs veh, RWDD3 / RFU, BCAT1 / Fold change vs veh, BCAT1 / RFU, EDEM3 / Fold change vs veh, EDEM3 / RFU, TMEM33 / Fold change vs veh, TMEM33 / RFU, WDR75 / Fold change vs veh, WDR75 / RFU, AHCTF1 / Fold change vs veh, AHCTF1 / RFU, TFRC / Fold change vs veh, TFRC / RFU, ZDHHC17 / Fold change vs veh, ZDHHC17 / RFU, NOM1 / Fold change vs veh, NOM1 / RFU, ARL8B / Fold change vs veh, ARL8B / RFU, ZBTB11 / Fold change vs veh, ZBTB11 / RFU, TAMM41 / Fold change vs veh, TAMM41 / RFU, KIAA1704 /// LOC100996395 / Fold change vs veh, KIAA1704 /// LOC100996395 / RFU, ING1 / Fold change vs veh, ING1 / RFU, TRMT61B / Fold change vs veh, TRMT61B / RFU, FUBP3 / Fold change vs veh, FUBP3 / RFU, TP53 / Fold change vs veh, TP53 / RFU, TNKS2 / Fold change vs veh, TNKS2 / RFU, ZFP14 / Fold change vs veh, ZFP14 / RFU, ACTR2 / Fold change vs veh, ACTR2 / RFU, PPP3R1 / Fold change vs veh, PPP3R1 / RFU, PIK3R1 / Fold change vs veh, PIK3R1 / RFU, HNRNPA1 / Fold change vs veh, HNRNPA1 / RFU, RNF170 / Fold change vs veh, RNF170 / RFU, ZNF28 / Fold change vs veh, ZNF28 / RFU, RNGTT / Fold change vs veh, RNGTT / RFU, OGT / Fold change vs veh, OGT / RFU, BRD1 / Fold change vs veh, BRD1 / RFU, MARS / Fold change vs veh, MARS / RFU, ZNF655 / Fold change vs veh, ZNF655 / RFU, FAHD1 / Fold change vs veh, FAHD1 / RFU, BDP1 / Fold change vs veh, BDP1 / RFU, LRRCC1 / Fold change vs veh, LRRCC1 / RFU, ARID1A / Fold change vs veh, ARID1A / RFU, ZNF146 / Fold change vs veh, ZNF146 / RFU, ZNF330 / Fold change vs veh, ZNF330 / RFU, GPN3 / Fold change vs veh, GPN3 / RFU, C9orf123 / Fold change vs veh, C9orf123 / RFU, N4BP2L2 / Fold change vs veh, N4BP2L2 / RFU, ARFIP1 / Fold change vs veh, ARFIP1 / RFU, FAM179B / Fold change vs veh, FAM179B / RFU, BCL10 / Fold change vs veh, BCL10 / RFU, UHRF1BP1L / Fold change vs veh, UHRF1BP1L / RFU, BET1 / Fold change vs veh, BET1 / RFU, CNOT2 / Fold change vs veh, CNOT2 / RFU, ZNF268 / Fold change vs veh, ZNF268 / Fold change vs veh, ZNF507 / RFU, DGCR2 / Fold change vs veh, DGCR2 / RFU, WDSUB1 / Fold change vs veh, WDSUB1 / Fold change vs veh, HSP90B1 /// MIR3652 / RFU, ADSS / Fold change vs veh, ADSS / RFU, GK / Fold change vs veh, GK / RFU, ZNF148 / Fold change vs veh, ZNF148 / RFU, TAF9 / Fold change vs veh, TAF9 / RFU, SLC1A5 / Fold change vs veh, SLC1A5 / RFU, SLMO2 / Fold change vs veh, SLMO2 / RFU, ABCC4 / Fold change vs veh, ABCC4 / RFU, LOC101060439 /// RAP1B / Fold change vs veh, LOC101060439 /// RAP1B / RFU, RFX7 / Fold change vs veh, RFX7 / RFU, GTPBP10 / Fold change vs veh, GTPBP10 / RFU, CNEP1R1 / Fold change vs veh, CNEP1R1 / RFU, BIVM-ERCC5 /// ERCC5 / Fold change vs veh, BIVM-ERCC5 /// ERCC5 / RFU, ILF3 / Fold change vs veh, ILF3 / RFU 11762660_at / Fold change /veh 11762660_at / RFU VCAN (11757783_s_at) / Fold change /veh VCAN (11757783_s_at) / RFU DDX43 (11728927_at) / Fold change /veh DDX43 (11728927_at) / RFU KRT8 (11758188_x_at) / Fold change /veh KRT8 (11758188_x_at) / RFU NKD1 (11759106_at) / Fold change /veh NKD1 (11759106_at) / RFU SRD5A1 (11742802_a_at) / Fold change /veh SRD5A1 (11742802_a_at) / RFU TPSAB1 /// TPSB2 (11721975_s_at) / Fold change /veh TPSAB1 /// TPSB2 (11721975_s_at) / RFU GSTM3 (11746129_a_at) / Fold change /veh GSTM3 (11746129_a_at) / RFU IL23R (11737362_x_at) / Fold change /veh IL23R (11737362_x_at) / RFU TMEM51 (11727254_a_at) / Fold change /veh TMEM51 (11727254_a_at) / RFU PIWIL2 (11732686_x_at) / Fold change /veh PIWIL2 (11732686_x_at) / RFU ORM1 (11744905_x_at) / Fold change /veh ORM1 (11744905_x_at) / RFU CCDC152 (11743942_at) / Fold change /veh CCDC152 (11743942_at) / RFU ECM1 (11717891_a_at) / Fold change /veh ECM1 (11717891_a_at) / RFU IL23R (11748794_a_at) / Fold change /veh IL23R (11748794_a_at) / RFU TNFAIP8L3 (11732012_x_at) / Fold change /veh TNFAIP8L3 (11732012_x_at) / RFU MBOAT4 (11741988_at) / Fold change /veh MBOAT4 (11741988_at) / RFU 11764193_at / Fold change /veh 11764193_at / RFU TMEM53 (11763286_at) / Fold change /veh TMEM53 (11763286_at) / RFU MAGEB2 (11727129_at) / Fold change /veh MAGEB2 (11727129_at) / RFU TMEM200A (11744735_a_at) / Fold change /veh TMEM200A (11744735_a_at) / RFU CCDC152 (11751479_a_at) / Fold change /veh CCDC152 (11751479_a_at) / RFU FAM211A (11726209_a_at) / Fold change /veh FAM211A (11726209_a_at) / RFU RGS16 (11746705_a_at) / Fold change /veh RGS16 (11746705_a_at) / RFU VCAN (11755009_s_at) / Fold change /veh VCAN (11755009_s_at) / RFU RHOB (11743442_s_at) / Fold change /veh RHOB (11743442_s_at) / RFU RGS16 (11720943_a_at) / Fold change /veh RGS16 (11720943_a_at) / RFU RGS16 (11720944_at) / Fold change /veh RGS16 (11720944_at) / RFU, VPS4B / Fold change vs veh, VPS4B / RFU, CREB1 / Fold change vs veh, CREB1 / RFU, DNAJC13 / Fold change vs veh, DNAJC13 / RFU, GNAQ / Fold change vs veh, GNAQ / RFU, CDK5R1 / Fold change vs veh, CDK5R1 / RFU, ZRANB3 / Fold change vs veh, ZRANB3 / RFU, CUL4A / Fold change vs veh, CUL4A / RFU, CCNY / Fold change vs veh, CCNY / RFU, UFL1 / Fold change vs veh, UFL1 / RFU, COG3 / Fold change vs veh, COG3 / RFU, DIAPH2 / Fold change vs veh, DIAPH2 / RFU, SKA2 / Fold change vs veh, SKA2 / RFU, AFF3 / Fold change vs veh, AFF3 / RFU, LMF1 / Fold change vs veh, LMF1 / RFU, IPO11 / Fold change vs veh, IPO11 / RFU, DFFB / Fold change vs veh, DFFB / RFU, FOXP1 / Fold change vs veh, FOXP1 / RFU, CARD8 / Fold change vs veh, CARD8 / RFU, STRN3 / Fold change vs veh, STRN3 / RFU, ADK / Fold change vs veh, ADK / RFU, RASSF2 / Fold change vs veh, RASSF2 / RFU, WIPF1 / Fold change vs veh, WIPF1 / RFU, LARP1B / Fold change vs veh, LARP1B / RFU, RASA1 / Fold change vs veh, RASA1 / RFU, RB1 / Fold change vs veh, RB1 / RFU, PPFIA1 / Fold change vs veh, PPFIA1 / RFU, MAT2A / Fold change vs veh, MAT2A / RFU, CCT5 / Fold change vs veh, CCT5 / RFU, WDR92 / Fold change vs veh, WDR92 / RFU, CUX1 / Fold change vs veh, CUX1 / RFU, TTC7A / Fold change vs veh, TTC7A / RFU, TMEM135 / Fold change vs veh, TMEM135 / RFU, DEPTOR / Fold change vs veh, DEPTOR / RFU, CPM / Fold change vs veh, CPM / RFU, DNAJB6 / Fold change vs veh, DNAJB6 / RFU, CACNA2D3 / Fold change vs veh, CACNA2D3 / RFU, DTX4 / Fold change vs veh, DTX4 / RFU, TFCP2 / Fold change vs veh, TFCP2 / RFU, GMCL1 /// GMCL1P1 / Fold change vs veh, GMCL1 /// GMCL1P1 / RFU, AEBP2 / Fold change vs veh, AEBP2 / RFU, SNHG1 /// SNORD22 /// SNORD25 /// SNORD26 /// SNORD27 /// SNORD28 /// SNORD29 /// SNORD31 / Fold change vs veh, SNHG1 /// SNORD22 /// SNORD25 /// SNORD26 /// SNORD27 /// SNORD28 /// SNORD29 /// SNORD31 / Fold change (Aza/veh), C12orf56 (ProbeSet 11735607_a_at) / Fold change (ACY-1035/veh), C12orf56 (ProbeSet 11735607_a_at) / Fold change (Aza/veh), FGFR1OP (ProbeSet 11751329_s_at) / Fold change (ACY-1035/veh), FGFR1OP (ProbeSet 11751329_s_at) / Fold change (Aza/veh), VPS36 (ProbeSet 11739960_a_at) / Fold change (ACY-1035/veh), VPS36 (ProbeSet 11739960_a_at) / RFU SYPL1 (11715823_x_at) / Fold change /veh SYPL1 (11715823_x_at) / RFU IGFBP7 (11715501_s_at) / Fold change /veh IGFBP7 (11715501_s_at) / RFU REEP3 (11722064_at) / Fold change /veh REEP3 (11722064_at) / RFU IGLL1 (11728026_x_at) / Fold change /veh IGLL1 (11728026_x_at): dose or concentration left out as unconfirmed
Conditions: ProbeSet 11715478_a_at; LIST B

Structure (SMILES): Nc1ccc(-c2cccs2)cc1NC(=O)c1ccc2c(c1)cc(C1CC1)n2CCN1CCOCC1 [ACY-1035]
- Fold change vs veh, TFRC: 0.87
